Results published in US8986733B2, “Materials and methods for nerve repair” (University of Florida Research Foundation, Inc., priority 2001, dated 2015).

Tests used:
[1] = tested on: CSPG; test: CSPG neoepitope (Ab1918) immunolabeling of acellular rat sciatic nerve segments treated en bloc; format: biochemical; settings: en bloc treatment 16 h
Excerpt: Preparation of acellular nerve grafts treated with chondroitinase. Adult (180-200 g) female SPRAGUE DAWLEY rats (HARLAN, Indianapolis, Ind.) were used as nerve donors and recipient hosts. Donor rats were anesthetized with halothane and decapitated. Sciatic nerves were exposed through a gluteal muscle-splitting incision and isolated free of underlying fascia. A 15-mm nerve segment was excised rostral to the bifurcation into common peroneal and tibial nerves. The segments were rinsed with cold sterile Ringer's solution, stabilized by pinning the ends to a thin plastic support, and transferred to a cryogenic vial. The vials were submerged in liquid nitrogen for 2 minutes and then transferred to a 37° C. water bath for 2 minutes. This freeze/thaw cycle was repeated, yielding acellular nerve grafts that were then stored in liquid nitrogen. On the day before grafting, the nerve grafts were warmed to room temperature and incubated in 100 μl phosphate buffered saline pH 7.4 (PBS) containing 2 units/ml chondroitinase ABC (SIGMA, St. Louis, Mo.) or in PBS (vehicle) only for 16 hours at 37° C. The grafts were rinsed twice with Ringer's and kept on ice prior to use. […]
Immunocytochemistry. Axonal regeneration was assessed by GAP-43 immunofluorescence and digital image analysis. […]

[2] = tested on: embryonic chick DRG neurons; test: Cryoculture bioassay on sections of acellular rat nerve segments; format: cell-based
Description: (§1) Cryoculture bioassay. Cryoculture is a neurite outgrowth assay in which neurons are cultured directly on fresh/frozen nerve sections and was performed as described previously (Ferguson T A et al. [2000] Mol Cell Neurosci, 16:157-167). Briefly, chondroitinase- and vehicle-treated nerve segments were sectioned at 20 μm, mounted on sterile, aminopropyltriethoxysilane (APTS)-coated coverslips and stored at −20° C. until used. Where indicated, sections were treated with chondroitinase ABC (0.1 unit/ml) or vehicle (50 mM Tris-HCl, pH 8.0), containing 50 mM NaCl) for 2 h at 37° C. Purified dorsal root ganglionic (DRG) neurons from day 8 chick embryos were seeded directly on the nerve sections in a defined N2 medium (Bottenstein J E et al. [1980] Exp Cell Res 125:183-190) containing 10 ng/ml nerve growth factor. […] Neurite lengths were measured directly using IMAGE-PRO PLUS software (MEDIA CYBERNETICS, Silver Springs, Md.). At least 250 neurons with neurites greater than one cell body (˜15 μm) were scored for each condition in each experiment.
Inactivation of inhibitory CSPG in chondroitinase-treated acellular nerve was determined by cryoculture bioassay. Embryonic chick DRG neurons were seeded onto sections of prepared nerve segments and the neurite-promoting activity was assessed by scoring neurite growth. […]

[3] = tested on: chick DRG neurons; test: Cryoculture assay using human nerve segments; format: cell-based; settings: DRG neurons 24 h on treated human nerve sections
Description: Human nerves were treated with chondroitinase and then assayed for neurite-promoting activity. Dissociated chick DRG neurons were grown on the sections for 24 h and neurite lengths were scored. Results are expressed as means (−SEM). Statistical significance (P<0.001) comparing vehicle-treated and chondroitinase-treated conditions was found using Student's t test.
as §1, with “C.” for “C. Purified dorsal root ganglionic (DRG) neurons from day 8 chick embryos were seeded directly on the nerve sections in a defined N2 medium (Bottenstein J E et al. [1980] Exp Cell Res 125:183-190) containing 10 ng/ml nerve growth factor.”, “experiment. […]” for “experiment.”

[4] = tested on: rat sciatic nerve; test: Human-to-rat acellular nerve xenograft model, GAP-43 axon scoring; format: in vivo; settings: 8-day acellular human nerve xenografts in rat
Excerpt: Human nerve fascicles (of similar diameter to the rat sciatic nerve) were grafted into a gap made in the rat sciatic nerve. Serial sections of the 8-day interpositional nerve xenografts were scored for GAP-43-labeled axonal profiles by digital image analysis. Data represent the means (−SEM) of 2 vehicle-treated and 2 chondroitinase-treated grafts assessed at the specified distances into the graft (proximal to distal).
In the following experiments, the hypothesis that chondroitinase treatment improves nerve regeneration through acellular human nerve grafts in a rat xenograft model was tested. Subunits (individual fascicles) taken from human nerves were treated en bloc with vehicle or chondroitinase ABC. Ten-mm interpositional nerve grafts were joined to the rat host sciatic nerve by epineurial neurorrhaphy reinforced with fibrin glue. Each of 2 host rats received bilateral grafts, one vehicle-treated and one chondroitinase-treated graft. Regeneration was initially examined after 8 days. Axonal growth was assessed at specified spatial intervals within the graft by scoring GAP-43-immunopositive profiles in transverse sections.

Substance: chondroitinase ABC
- CSPG degradation (Ab1918 neoepitope immunostaining) [1]: thoroughly degraded CSPG side-chains
- effect of post-treatment on neurite-promoting activity ([2]; sections from en bloc chondroitinase-treated nerve grafts): only a slight additive effect
- increase in neurite-promoting activity by post-treatment of sections ([2]; sections of acellular nerve treated en bloc with vehicle only, post-treated after sectioning): 86%
- growth-promoting properties of human nerves (neurite length) [3]: increased
- average number of axons (GAP-43-immunopositive profiles) entering grafts vs control grafts [4]: more than three-fold greater
